Assay results published in patent US20080057140A1, “Use of a Lignan for the Manufacture of a Composition for Preventing or Alleviating of Symptoms Relating to Estrogen Deficiency” (priority 2005, published 2008).

Tests used:
[1] = plasma enterolactone after 7-hydroxymatairesinol capsules in human subjects; assay type: in vivo; details: healthy male volunteers, capsules 315 mg/day (3 x 105 mg), 29 days, FIG. 2
Protocol: The data for experimental days 1 and 29 is shown. On the x-axis, the time (hrs) after the first 105 mg dose is shown. The arrows denote the administration of the three 105 mg HMRlignan™ (hydroxymatairesinol) doses during the test days 1 and 29. N=6.
In brief, healthy male volunteers ingested capsule preparation of 7-hydroxymatairesinol, at total daily dose of 315 mg, divided in three 105 mg portion for morning, afternoon and evening dose. The subjects ingested the product continuously for 29 days. […] The levels were measured with a high-performance liquid chromatography coupled with tandem mass spectrometer system (Applied Biosystems Inc.).

[2] = disclosed in WO 00/59946; cited from earlier work

Question: Which results are given for `COc1cc(C[C@H]2C(=O)OC[C@@H]2[C@H](O)c2ccc(O)c(OC)c2)ccc1O` [7-hydroxymatairesinol]?
Answer: circulating enterolactone concentration [1]: sustained increase; conversion to enterolactone in vivo [2]: efficiently converted to enterolactone
